Test results published in patent publication US9708318B2, “Bicyclic heterocycles as FGFR4 inhibitors” (Incyte Corporation, priority 2015, dated 2017).
Where two headings read alike, the source gives them in different places.

Columns and labels:
FGFR2 = FGFR2 (Homo sapiens (Human), UniProt P21802); experiment: FGFR Enzymatic Assay (FRET peptide phosphorylation), FGFR2; type: biochemical
Method: (§1) The inhibitor potency of the exemplified compounds was measured in an enzyme assay that measures peptide phosphorylation using FRET measurements to detect product formation. Inhibitors were serially diluted in DMSO and a volume of 0.5 μL was transferred to the wells of a 384-well plate.
(§2) The enzymes were purchased from Millipore or Invitrogen.
(§3) GraphPad prism3 was used to analyze the data.

FGFR3 enzyme = FGFR3 enzyme (Homo sapiens (Human), UniProt P22607); experiment: FGFR Enzymatic Assay (FRET peptide phosphorylation), FGFR3; type: biochemical; details: for FGFR1/FGFR3 IC50 ratio / FGFR4/FGFR3 IC50 ratio: FGFR3 selectivity; for IC50: read-out: FGFR3 IC50
FGFR3 enzyme, sequence (P22607 23-806): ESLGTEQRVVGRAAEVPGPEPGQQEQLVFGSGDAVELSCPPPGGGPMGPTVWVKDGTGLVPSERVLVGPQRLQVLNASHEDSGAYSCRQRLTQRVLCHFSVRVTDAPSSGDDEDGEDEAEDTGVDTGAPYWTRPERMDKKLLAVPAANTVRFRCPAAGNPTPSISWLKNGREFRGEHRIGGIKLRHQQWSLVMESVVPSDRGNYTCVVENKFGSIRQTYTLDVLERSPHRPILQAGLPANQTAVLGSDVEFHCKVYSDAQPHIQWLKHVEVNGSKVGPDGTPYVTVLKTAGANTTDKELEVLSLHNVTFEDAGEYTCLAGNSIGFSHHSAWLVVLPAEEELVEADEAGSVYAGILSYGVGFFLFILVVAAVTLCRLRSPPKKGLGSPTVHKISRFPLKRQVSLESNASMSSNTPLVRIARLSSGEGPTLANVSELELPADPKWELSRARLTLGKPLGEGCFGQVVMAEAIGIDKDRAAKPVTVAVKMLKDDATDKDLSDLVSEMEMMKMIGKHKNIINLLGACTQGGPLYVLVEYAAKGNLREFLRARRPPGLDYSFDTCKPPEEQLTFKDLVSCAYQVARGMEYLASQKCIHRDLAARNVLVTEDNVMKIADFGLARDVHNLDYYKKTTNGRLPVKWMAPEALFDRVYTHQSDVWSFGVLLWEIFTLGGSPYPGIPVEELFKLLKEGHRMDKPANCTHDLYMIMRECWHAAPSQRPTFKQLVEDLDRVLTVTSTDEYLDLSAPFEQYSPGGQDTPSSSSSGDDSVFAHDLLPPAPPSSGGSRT
Method: as §1, §3

FGFR4 = FGFR4 (Homo sapiens (Human), UniProt P22455); experiment: FGFR Enzymatic Assay (FRET peptide phosphorylation), FGFR4; type: biochemical; details: for FGFR1/FGFR4 IC50 ratio / FGFR2/FGFR4 IC50 ratio / FGFR3/FGFR4 IC50 ratio: FGFR4 selectivity
FGFR4, sequence (P22455 22-802): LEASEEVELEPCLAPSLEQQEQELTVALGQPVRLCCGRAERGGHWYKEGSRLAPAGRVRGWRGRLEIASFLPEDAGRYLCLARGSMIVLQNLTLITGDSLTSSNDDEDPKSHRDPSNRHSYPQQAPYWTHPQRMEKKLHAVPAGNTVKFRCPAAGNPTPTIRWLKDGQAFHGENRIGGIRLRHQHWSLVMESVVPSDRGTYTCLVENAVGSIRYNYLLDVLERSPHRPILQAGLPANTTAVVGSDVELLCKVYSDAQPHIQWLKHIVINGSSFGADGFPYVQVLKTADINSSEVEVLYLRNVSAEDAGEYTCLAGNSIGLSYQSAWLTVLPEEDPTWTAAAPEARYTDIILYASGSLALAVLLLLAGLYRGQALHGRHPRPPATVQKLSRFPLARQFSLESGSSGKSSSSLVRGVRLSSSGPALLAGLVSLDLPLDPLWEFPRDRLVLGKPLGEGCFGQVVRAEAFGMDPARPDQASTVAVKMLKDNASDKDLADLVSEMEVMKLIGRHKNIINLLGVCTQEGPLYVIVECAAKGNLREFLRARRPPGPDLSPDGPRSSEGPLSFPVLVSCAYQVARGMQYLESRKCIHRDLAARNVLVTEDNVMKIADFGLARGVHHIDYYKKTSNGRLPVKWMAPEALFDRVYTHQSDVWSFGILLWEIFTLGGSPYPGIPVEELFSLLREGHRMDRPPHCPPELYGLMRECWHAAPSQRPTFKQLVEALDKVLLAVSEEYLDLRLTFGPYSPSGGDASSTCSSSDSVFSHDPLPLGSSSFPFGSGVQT
Method: as §1, §2, §3

FGFR1 = FGFR1 (Homo sapiens (Human), UniProt P11362); experiment: FGFR Enzymatic Assay (FRET peptide phosphorylation), FGFR1
FGFR1, sequence (P11362 22-822): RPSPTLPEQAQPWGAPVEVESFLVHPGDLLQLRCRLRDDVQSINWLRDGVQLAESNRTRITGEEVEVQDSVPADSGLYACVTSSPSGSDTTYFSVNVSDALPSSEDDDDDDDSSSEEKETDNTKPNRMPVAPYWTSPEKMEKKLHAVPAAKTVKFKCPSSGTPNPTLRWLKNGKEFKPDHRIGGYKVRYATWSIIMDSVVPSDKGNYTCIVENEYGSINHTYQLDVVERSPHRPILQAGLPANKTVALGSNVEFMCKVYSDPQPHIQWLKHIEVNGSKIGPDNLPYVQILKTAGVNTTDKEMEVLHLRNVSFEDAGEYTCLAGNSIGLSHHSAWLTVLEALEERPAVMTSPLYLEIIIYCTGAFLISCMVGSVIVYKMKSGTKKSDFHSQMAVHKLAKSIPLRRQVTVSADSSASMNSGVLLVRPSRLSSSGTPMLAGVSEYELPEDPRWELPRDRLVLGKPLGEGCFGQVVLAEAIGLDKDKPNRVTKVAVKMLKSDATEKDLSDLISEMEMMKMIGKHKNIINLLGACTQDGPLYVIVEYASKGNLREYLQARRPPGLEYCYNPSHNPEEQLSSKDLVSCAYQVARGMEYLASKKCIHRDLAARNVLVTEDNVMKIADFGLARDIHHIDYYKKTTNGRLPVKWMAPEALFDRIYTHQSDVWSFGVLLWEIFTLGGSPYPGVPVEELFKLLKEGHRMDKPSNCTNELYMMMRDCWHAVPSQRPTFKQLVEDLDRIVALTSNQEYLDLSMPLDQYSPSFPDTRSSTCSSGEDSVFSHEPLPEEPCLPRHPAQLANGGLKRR

[1] = FGFR1 IC50 (nM), pre-incubated for 4 hours
[2] = pre-incubated for 5 to 10 minutes
[3] = read-out: FGFR1 IC50, pre-incubated for 5 to 10 minutes
[4] = read-out: FGFR1 IC50, pre-incubated for 4 hours
[5] = FGFR1 IC50 (nM), pre-incubated for 5 to 10 minutes

FGFR2, sequence (P21802 22-821): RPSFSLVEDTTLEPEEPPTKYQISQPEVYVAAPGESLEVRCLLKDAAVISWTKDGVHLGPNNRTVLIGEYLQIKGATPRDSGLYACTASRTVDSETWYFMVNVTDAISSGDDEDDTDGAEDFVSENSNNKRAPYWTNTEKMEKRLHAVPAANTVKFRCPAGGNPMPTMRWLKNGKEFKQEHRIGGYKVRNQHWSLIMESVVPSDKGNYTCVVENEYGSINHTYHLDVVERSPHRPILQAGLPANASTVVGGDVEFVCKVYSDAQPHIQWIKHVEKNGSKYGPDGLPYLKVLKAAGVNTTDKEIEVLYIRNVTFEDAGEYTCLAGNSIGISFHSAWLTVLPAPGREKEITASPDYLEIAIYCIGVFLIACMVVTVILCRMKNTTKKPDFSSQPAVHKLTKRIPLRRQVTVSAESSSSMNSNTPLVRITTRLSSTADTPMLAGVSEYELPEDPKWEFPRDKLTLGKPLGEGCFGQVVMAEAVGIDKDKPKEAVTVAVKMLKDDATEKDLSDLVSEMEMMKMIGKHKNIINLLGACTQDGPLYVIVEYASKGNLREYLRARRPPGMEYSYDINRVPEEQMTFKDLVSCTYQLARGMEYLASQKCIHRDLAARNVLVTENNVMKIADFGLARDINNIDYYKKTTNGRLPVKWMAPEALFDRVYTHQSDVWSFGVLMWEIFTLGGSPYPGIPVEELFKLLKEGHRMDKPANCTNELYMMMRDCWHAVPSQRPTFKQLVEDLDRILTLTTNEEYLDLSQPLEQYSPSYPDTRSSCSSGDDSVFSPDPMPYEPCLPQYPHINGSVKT

Compound	IC50 (FGFR2; pre-incubated for 4 hours) [nM]	FGFR1/FGFR3 IC50 ratio (FGFR3 enzyme; pre-incubated for 4 hours)	FGFR4/FGFR3 IC50 ratio (FGFR3 enzyme; pre-incubated for 4 hours)	IC50 (FGFR3 enzyme; pre-incubated for 4 hours) [nM]	IC50 (FGFR4; pre-incubated for 4 hours) [nM]	IC50 (FGFR1; [1]) [nM]	IC50 (FGFR2; [2]) [nM]	IC50 (FGFR3 enzyme; [2]) [nM]	FGFR1/FGFR4 IC50 ratio (FGFR4; [2])	FGFR2/FGFR4 IC50 ratio (FGFR4; [2])	FGFR3/FGFR4 IC50 ratio (FGFR4; [2])	FGFR1/FGFR4 IC50 ratio (FGFR4; pre-incubated for 4 hours)	FGFR2/FGFR4 IC50 ratio (FGFR4; pre-incubated for 4 hours)	FGFR3/FGFR4 IC50 ratio (FGFR4; pre-incubated for 4 hours)	IC50 (FGFR4; [2]) [nM]	IC50 (FGFR1; [3]) [nM]	IC50 (FGFR1; [4]) [nM]	IC50 (FGFR1; [5]) [nM]
COc1cc(OC)c(F)c(N2Cc3cnc(-c4cn(C)nc4C)cc3N(C3CC3)C2=O)c1F [Example 83, 1-cyclopropyl-3-(2,6-difluoro-3,5-dimethoxyphenyl)-7-(1,3-dimethyl-1H-pyrazol-4-yl)-3,4-dihydropyrido[4,3-d]pyrimidin-2(1H)-one]	30 to 200	>5	>5	10 to 30	> 200	30 to 200												
COc1cc(OC)c(F)c(N2Cc3cnc(-c4cc(N)cnc4C)cc3C3(CC3)C2=O)c1F [Example 7, 6′-(5-amino-2-methylpyridin-3-yl)-2′-(2,6-difluoro-3,5-dimethoxyphenyl)-1′H-spiro[cyclopropane-1,4′-[2,7]naphthyridin]-3′(2′H)-one]	> 200	>1		> 200	30 to 200		> 200	> 200	>25	>10	>10	>50	>25	>25	30 to 200	> 200	> 200	
COc1cc(OC)c(F)c(N2Cc3cnc(-c4cn(C5CCN(CC#N)C5)nc4C)cc3C3(CC3)C2=O)c1F (stereo not shown) [Example 154, 2-(3-(4-(2′-(2,6-difluoro-3,5-dimethoxyphenyl)-3′-oxo-2′,3′-dihydro-1′H-spiro[cyclopropane-1,4′-[2,7]naphthyridine]-6′-yl)-3-methyl-1H-pyrazol-1-yl)pyrrolidin-1-yl)acetonitrile]	10 to 30	>5	>3	10 to 30	30 to 200	30 to 200												
COc1cc(OC)c(F)c(N2Cc3cnc(-c4cn(C)nc4C)cc3N(c3cc(F)cc(C#N)c3)C2=O)c1F [Example 78, 3-(3-(2,6-difluoro-3,5-dimethoxyphenyl)-7-(1,3-dimethyl-1H-pyrazol-4-yl)-2-oxo-3,4-dihydropyrido[4,3-d]pyrimidin-1(2H)-yl)-5-fluorobenzonitrile]	10 to 30	>5	>3	< 10	30 to 200	30 to 200												
COc1cc(OC)c(F)c(N2Cc3cnc(-c4cc(N)ccc4C#N)cc3C3(CC3)C2=O)c1F [Example 3, 4-amino-2-(2′-(2,6-difluoro-3,5-dimethoxyphenyl)-3′-oxo-2′,3′-dihydro-1′H-spiro[cyclopropane-1,4′-[2,7]naphthyridine]-6′-yl)benzonitrile]	> 200			> 200	10 to 30		> 200	> 200	>25	>25	>25	>25	>25	>10	10 to 30	> 200	> 200	
COc1cc(OC)c(F)c(N2Cc3cnc(-c4ccc(C5(C#N)CCC5)nc4)cc3N(c3cccnc3)C2=O)c1F [Example 138, 1-(5-(3-(2,6-difluoro-3,5-dimethoxyphenyl)-2-oxo-1-(pyridin-3-yl)-1,2,3,4-tetrahydropyrido[4,3-d]pyrimidin-7-yl)pyridin-2-yl)cyclobutanecarbonitrile]							10 to 30	10 to 30							30 to 200			30 to 200
COc1cc(OC)c(F)c(N2Cc3cnc(-c4ccc(C5(C#N)CCC5)nc4)cc3N(C3CCC3)C2=O)c1F [Example 136, 1-(5-(1-cyclobutyl-3-(2,6-difluoro-3,5-dimethoxyphenyl)-2-oxo-1,2,3,4-tetrahydropyrido[4,3-d]pyrimidin-7-yl)pyridin-2-yl)cyclobutanecarbonitrile]							10 to 30	10 to 30							30 to 200			30 to 200
COc1cc(OC)c(F)c(N2Cc3cnc(-c4cn(C)nc4C)cc3N(C3CCOC3)C2=O)c1F (stereo not shown) [Example 33, 3-(2,6-difluoro-3,5-dimethoxyphenyl)-7-(1,3-dimethyl-1H-pyrazol-4-yl)-1-(tetrahydrofuran-3-yl)-3,4-dihydropyrido[4,3-d]pyrimidin-2(1H)-one]	< 10	>5	>5	< 10	30 to 200	30 to 200												

Next, values leading:

IC50 (FGFR2; pre-incubated for 4 hours) [nM]	FGFR1/FGFR3 IC50 ratio (FGFR3 enzyme; pre-incubated for 4 hours)	FGFR4/FGFR3 IC50 ratio (FGFR3 enzyme; pre-incubated for 4 hours)	IC50 (FGFR3 enzyme; pre-incubated for 4 hours) [nM]	IC50 (FGFR4; pre-incubated for 4 hours) [nM]	IC50 (FGFR1; [1]) [nM]	IC50 (FGFR2; [2]) [nM]	IC50 (FGFR3 enzyme; [2]) [nM]	FGFR1/FGFR4 IC50 ratio (FGFR4; [2])	FGFR2/FGFR4 IC50 ratio (FGFR4; [2])	FGFR3/FGFR4 IC50 ratio (FGFR4; [2])	FGFR1/FGFR4 IC50 ratio (FGFR4; pre-incubated for 4 hours)	FGFR2/FGFR4 IC50 ratio (FGFR4; pre-incubated for 4 hours)	FGFR3/FGFR4 IC50 ratio (FGFR4; pre-incubated for 4 hours)	IC50 (FGFR4; [2]) [nM]	IC50 (FGFR1; [3]) [nM]	IC50 (FGFR1; [4]) [nM]	IC50 (FGFR1; [5]) [nM]	Compound
< 10	>3	>10	< 10	30 to 200	10 to 30													CCN1C(=O)N(c2c(F)c(OC)cc(OC)c2F)Cc2cnc(-c3ccc(C4(C#N)CC4)cc3)cc21 [Example 183, 1-(4-(3-(2,6-difluoro-3,5-dimethoxyphenyl)-1-ethyl-2-oxo-1,2,3,4-tetrahydropyrido[4,3-d]pyrimidin-7-yl)phenyl)cyclopropanecarbonitrile]
< 10	>5	>5	< 10	10 to 30	10 to 30													CCn1cnc(-c2cc3c(cn2)CN(c2c(F)c(OC)cc(OC)c2F)C(=O)C32CC2)c1 [Example 53, 2′-(2,6-difluoro-3,5-dimethoxyphenyl)-6′-(1-ethyl-1H-imidazol-4-yl)-1′H-spiro[cyclopropane-1,4′-[2,7]naphthyridin]-3′(2′H)-one]
< 10	>5	>3	< 10	10 to 30	30 to 200													CCn1cc(-c2cc3c(cn2)CN(c2c(F)c(OC)cc(OC)c2F)C(=O)C32CC2)c(C)n1 [Example 158, 2′-(2,6-difluoro-3,5-dimethoxyphenyl)-6′-(1-ethyl-3-methyl-1H-pyrazol-4-yl)-1′H-spiro[cyclopropane-1,4′-[2,7]naphthyridin]-3′(2′H)-one]
< 10	>5	>10	< 10	30 to 200	10 to 30													COc1cc(OC)c(F)c(N2Cc3cnc(-c4cn(C)nc4C)cc3N(c3cccc(-c4cnnn4C)c3)C2=O)c1F [Example 89, 3-(2,6-difluoro-3,5-dimethoxyphenyl)-7-(1,3-dimethyl-1H-pyrazol-4-yl)-1-(3-(1-methyl-1H-1,2,3-triazol-5-yl)phenyl)-3,4-dihydropyrido[4,3-d]pyrimidin-2(1H)-one]
< 10	>10	>10	< 10	< 10	10 to 30													CCn1cc(CN2C(=O)N(c3c(F)c(OC)cc(OC)c3F)Cc3cnc(-c4cn(C)nc4C)cc32)cn1 [Example 39, 3-(2,6-difluoro-3,5-dimethoxyphenyl)-7-(1,3-dimethyl-1H-pyrazol-4-yl)-1-((1-ethyl-1H-pyrazol-4-yl)methyl)-3,4-dihydropyrido[4,3-d]pyrimidin-2(1H)-one]
< 10	>5	>1	< 10	30 to 200	30 to 200													CCN1C(=O)N(c2c(F)c(OC)cc(OC)c2F)Cc2cnc(-c3cn(CCN4CCOCC4)nc3C)cc21 [Example 49, 3-(2,6-difluoro-3,5-dimethoxyphenyl)-1-ethyl-7-(3-methyl-1-(2-morpholinoethyl)-1H-pyrazol-4-yl)-3,4-dihydropyrido[4,3-d]pyrimidin-2(1H)-one]
